Experimental findings from patent US20140057915A1, “KINASE INHIBITORS” (TOPIVERT PHARMA LIMITED, priority 2012, published 2014) are described below.

One series deals with d-U937 cells. In words: Cell viability: MTT assay. It is filed as cell-based, human. Conditions: 1 μg/mL. As to the method: (l) The Effect of Test Compounds on Cell Viability: MTT Assay
Differentiated U937 cells are pre-incubated with each test compound (final concentration 1 μg/mL or 10 μg/mL in 200 μL media indicated below) under two protocols: the first for 4 hr in 5% FCS RPMI1640 media and the second in 10% FCS RPMI1640 media for 24 h. The supernatant is replaced with new media (200 μL) and MTT stock solution (10 μL, 5 mg/mL) is added to each well. After incubation for 1 hr the media are removed, DMSO (200 μL) is added to each well and the plates are shaken lightly for 1 hr prior to reading the absorbance at 550 nm. The percentage loss of cell viability is calculated for each well relative to vehicle (0.5% DMSO) treatment. Consequently an apparent increase in cell viability for drug treatment relative to vehicle is tabulated as a negative percentage.
Background: Formazan colour is commonly taken as a measure of viable cells.

The next series addresses GSK3α (Homo sapiens, UniProt P49840). In words: GSK 3α enzyme inhibition (FRET), Method 1. It is filed as biochemical. Conditions: Table 4a1. As to the method:
(§1) The enzyme inhibitory activities of compounds disclosed herein are determined by FRET using synthetic peptides labelled with both donor and acceptor fluorophores (Z-LYTE, Invitrogen Ltd., Paisley, UK).
The following two assay variants are used for determination of GSK 3a inhibition.
The inhibitory activities of compounds of the invention against the GSK 3a enzyme isoform (Invitrogen), are evaluated by determining the level of activation/phosphorylation of the target peptide. The GSK3-α protein (500 ng/mL, 2.5 μL) is mixed with the test compound (2.5 μL at either 4 μg/mL, 0.4 μg/mL, 0.04 μg/mL, or 0.004 μg/mL) for 2 hr at RT. The FRET peptide (8 μM, 2.5 μL), which is a phosphorylation target for GSK3α, and ATP (40 μM, 2.5 μL) are then added to the enzyme/compound mixture and the resulting mixture incubated for 1 hr. Development reagent (protease, 5 μL) is added for 1 hr prior to detection in a fluorescence microplate reader (Varioskan® Flash, ThermoFisher Scientific).
(§2) In all cases, the site-specific protease cleaves non-phosphorylated peptide only and eliminates the FRET signal. Phosphorylation levels of each reaction are calculated using the ratio of coumarin emission (donor) over fluorescein emission (acceptor), for which high ratios indicate high phosphorylation and low ratios indicate low phosphorylation levels.

Series [1] concerns IL-8 release, d-U937 cells. Briefly: LPS-induced IL-8 release in d-U937 cells. It is filed as cell-based. The following applies: Homo sapiens, dU937; Table 4c1; read-out: LPS Induced Release of Cytokine in d-U937 Cells, IL-8 IC50. As to the method: (§3) (a) LPS-Induced TNFα/IL-8 Release in d-U937Cells
U937 cells, a human monocytic cell line, are differentiated into macrophage-type cells by incubation with PMA (100 ng/mL) for 48 to 72 hr. Cells are pre-incubated with final concentrations of test compound for 2 hr and are then stimulated with LPS (0.1 μg/mL; from E. Coli: 0111:B4, Sigma) for 4 hr. […] The relative 50% effective concentration (REC50) is determined from the resultant concentration-response curve.

A further series addresses cSrc (Homo sapiens, UniProt P12931). In words: c-Src enzyme inhibition (FRET). It counts as biochemical. Conditions: Table 4a1. As to the method: as §1
(§4) The relevant enzyme (3000 ng/mL or 2000 ng/mL respectively, 2.5 μL) is incubated with the test compound (either 4 μg/mL, 0.4 μg/mL, 0.04 μg/mL, or 0.004 μg/mL, 2.5 μL each) for 2 hr at RT. The FRET peptides (8 μM, 2.5 μL), and appropriate ATP solutions (2.5 μL, 800 μM for c-Src, and 60 μM ATP for Syk) are then added to the enzymes/compound mixtures and incubated for 1 hr. Development reagent (protease, 5 μL) is added for 1 hr prior to detection in a fluorescence microplate reader (Varioskan® Flash, ThermoFisher Scientific).
as §2

The test system of series [2] is TNFα release, d-U937 cells. In words: LPS-induced TNFα release in d-U937 cells. It counts as cell-based. Conditions: Homo sapiens, dU937; relative to 10 μg/mL BIRB796; Table 4c1; read-out: LPS Induced Release of Cytokine in d-U937 Cells, TNFα REC50. The protocol: as §3
U937 cells, a human monocytic cell line, are differentiated into macrophage-type cells by incubation with PMA (100 ng/mL) for 48 to 72 hr. Cells are pre-incubated with final concentrations of test compound for 2 hr and are then stimulated with LPS (0.1 μg/mL; from E. Coli: 0111:B4, Sigma) for 4 hr. The supernatant is collected for determination of TNFα and IL-8 concentrations by sandwich ELISA (Duo-set, R&D systems). […] The relative 50% effective concentration (REC50) is determined from the resultant concentration-response curve. The inhibition of IL-8 production is calculated at each concentration of test compound by comparison with vehicle control.

The target of another series is Syk (Homo sapiens, UniProt P43405). In words: Syk enzyme inhibition (FRET). It counts as biochemical. Conditions: Table 4a1. The protocol:
as §1, §4, §2

Series [3] concerns ICAM-1 expression, BEAS2B cells. Briefly: Poly I:C-induced ICAM-1 expression in BEAS2B cells. It is filed as cell-based. Conditions: Homo sapiens, BEAS-2B; read-out: Poly IC induced ICAM1 in BEAS2B, IC50. As to the method:
(f) Poly I:C-Induced ICAM-1 Expression in BEAS2B Cells
Poly I:C is used in these studies as a simple, RNA virus mimic. Poly I:C-Oligofectamine mixture (1 μg/mL Poly I:C, ±2% Oligofectamine, 25 μL; Invivogen Ltd., San Diego, Calif., and Invitrogen, Carlsbad, Calif., respectively) is transfected into BEAS2B cells (human bronchial epithelial cells, ATCC). Cells are pre-incubated with final concentrations of test compounds for 2 hr and the level of ICAM1 expression on the cell surface is determined by cell-based ELISA. At a time point 18 hr after poly I:C transfection, cells are fixed with 4% formaldehyde in PBS (100 μL) and then endogenous peroxidase is quenched by the addition of washing buffer (100 μL, 0.05% Tween in PBS: PBS-Tween) containing 0.1% sodium azide and 1% hydrogen peroxide. Cells are washed with wash-buffer (3×200 μL). and after blocking the wells with 5% milk in PBS-Tween (100 μL) for 1 hr, the cells are incubated with anti-human ICAM-1 antibody (50 μL; Cell Signalling Technology, Danvers, Mass.) in 1% BSA PBS overnight at 4° C.
The cells are washed with PBS-Tween (3×200 μL) and incubated with the secondary antibody (100 μL; HRP-conjugated anti-rabbit IgG, Dako Ltd., Glostrup, Denmark). […] The ICAM-1 signal is detected by reading the absorbance at 450 nm against a reference wavelength of 655 nm using a spectrophotometer. The cells are then washed with PBS-Tween (3×200 μL) and total cell numbers in each well are determined by reading absorbance at 595 nm after Crystal Violet staining (50 μL of a 2% solution in PBS) and elution by 1% SDS solution (100 μL) in distilled water. The measured OD 450-655 readings are corrected for cell number by dividing with the OD595 reading in each well. The inhibition of ICAM-1 expression is calculated at each concentration of test compound by comparison with vehicle control.

Sequence of GSK3α (P49840 whole entry): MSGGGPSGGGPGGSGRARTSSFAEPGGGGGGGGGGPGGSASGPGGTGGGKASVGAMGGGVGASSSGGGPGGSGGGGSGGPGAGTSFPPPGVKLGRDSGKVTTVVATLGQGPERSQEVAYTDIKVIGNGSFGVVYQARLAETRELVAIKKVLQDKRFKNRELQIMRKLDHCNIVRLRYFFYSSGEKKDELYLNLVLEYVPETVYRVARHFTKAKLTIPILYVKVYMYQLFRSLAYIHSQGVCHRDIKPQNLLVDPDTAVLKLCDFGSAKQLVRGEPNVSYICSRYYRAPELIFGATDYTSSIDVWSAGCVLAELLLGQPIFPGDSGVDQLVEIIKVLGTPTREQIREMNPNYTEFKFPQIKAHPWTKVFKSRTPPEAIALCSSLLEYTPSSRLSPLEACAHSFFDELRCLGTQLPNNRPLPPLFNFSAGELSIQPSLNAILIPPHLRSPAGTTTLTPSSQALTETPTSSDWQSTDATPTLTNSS
Sequence of cSrc (P12931 whole entry): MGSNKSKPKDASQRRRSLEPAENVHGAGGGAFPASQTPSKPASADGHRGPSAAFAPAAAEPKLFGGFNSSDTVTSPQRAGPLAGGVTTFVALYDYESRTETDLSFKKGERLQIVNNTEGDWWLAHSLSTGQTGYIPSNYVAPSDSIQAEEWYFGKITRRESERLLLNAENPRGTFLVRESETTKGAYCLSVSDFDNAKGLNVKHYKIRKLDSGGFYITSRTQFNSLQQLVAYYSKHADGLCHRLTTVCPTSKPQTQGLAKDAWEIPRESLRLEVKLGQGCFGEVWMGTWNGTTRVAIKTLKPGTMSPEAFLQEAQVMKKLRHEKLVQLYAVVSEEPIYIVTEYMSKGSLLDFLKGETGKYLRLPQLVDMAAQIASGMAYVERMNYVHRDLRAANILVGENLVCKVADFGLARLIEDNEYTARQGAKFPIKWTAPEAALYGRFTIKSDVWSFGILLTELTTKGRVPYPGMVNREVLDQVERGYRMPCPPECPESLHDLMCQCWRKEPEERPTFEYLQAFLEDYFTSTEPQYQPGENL

As to `Cc1ccc(-n2nc(C(C)(C)C)cc2NC(=O)Nc2ccc(Oc3ccnc(Nc4cccc(C(=O)N5CCOCC5)c4)n3)c3ccccc23)cc1` [Example 27, 1-(3-(tert-butyl)-1-(p-tolyl)-1H-pyrazol-5-yl)-3-(4-((2-((3-(morpholine-4-carbonyl)phenyl)amino)pyrimidin-4-yl)oxy)naphthalen-1-yl)urea], the “Cell viability at time point in d-U937 cells, 4 h” value with d-U937 cells was “−ve (−ve and +ve indicate that the value is below and above respectively, the no significant effect threshold, defined as 30% inhibition at 1 μg/mL at the time point indicated)”. Also, the “Cell viability at time point in d-U937 cells, 24 h” value (shortened to “Cell viability at time point … 24 h”) in the series on d-U937 cells was “−ve (−ve and +ve indicate that the value is below and above respectively, the no significant effect threshold, defined as 30% inhibition at 1 μg/mL at the time point indicated)”. In addition, the IC50 (as a rule, the concentration needed to halve the response being measured) against GSK3α was determined as 311 nM; in series [1] it was 4.1 nM; against cSrc, 4 nM; against Syk, 39 nM; in series [3], 11.6 nM. The EC50 in series [2] worked out at 1.4 nM.
In the case of `COCCOc1cccc(-n2nc(C(C)(C)C)cc2NC(=O)Nc2ccc(Oc3ccnc(Nc4cc(OC)cc(C(=O)NCCN5CCOCC5)c4)n3)c3ccccc23)c1` [Example 55, 3-((4-((4-(3-(3-(tert-butyl)-1-(3-(2-methoxyethoxy)phenyl)-1H-pyrazol-5-yl)ureido)naphthalen-1-yl)oxy)pyrimidin-2-yl)amino)-5-methoxy-N-(2-morpholinoethyl)benzamide], the “Cell viability at time point in d-U937 cells, 4 h” value in the series with d-U937 cells is “−ve (−ve and +ve indicate that the value is below and above respectively, the no significant effect threshold, defined as 30% inhibition at 1 μg/mL at the time point indicated)”. In addition, the “Cell viability at time point … 24 h” value in the series with d-U937 cells is “−ve (−ve and +ve indicate that the value is below and above respectively, the no significant effect threshold, defined as 30% inhibition at 1 μg/mL at the time point indicated)”. In addition, the IC50 came to 281 nM against GSK3α; 2.1 nM in series [1]; 3 nM at cSrc; 4 nM at Syk; 5.8 nM in series [3]. Also, the EC50 in series [2] was determined as 3.3 nM.
For the compound `COc1ccc(C(=O)NCCO)cc1Nc1nccc(Oc2ccc(NC(=O)Nc3cc(C(C)(C)C)nn3-c3ccc(C)cc3)c3ccccc23)n1` [Example 33, 3-((4-((4-(3-(3-(tert-butyl)-1-(p-tolyl)-1H-pyrazol-5-yl)ureido)naphthalen-1-yl)oxy)pyrimidin-2-yl)amino)-N-(2-hydroxyethyl)-4-methoxybenzamide], in the series on d-U937 cells, the “Cell viability at time point in d-U937 cells, 4 h” value was “−ve (−ve and +ve indicate that the value is below and above respectively, the no significant effect threshold, defined as 30% inhibition at 1 μg/mL at the time point indicated)”. Moreover, the “Cell viability at time point … 24 h” value in the series with d-U937 cells is “−ve (−ve and +ve indicate that the value is below and above respectively, the no significant effect threshold, defined as 30% inhibition at 1 μg/mL at the time point indicated)”. Moreover, the IC50 is above 14300 nM at GSK3α; 4.2 nM in series [1]; 3 nM against cSrc; 98 nM against Syk; 143 nM in series [3]. For the same compound, the EC50 in series [2] came out at 1.5 nM.
On to `COc1cc(Nc2cc(Oc3ccc(NC(=O)Nc4cc(C(C)(C)C)nn4-c4ccc(C)cc4)c4ccccc34)ncn2)cc(C(=O)NCCN2CCOCC2)c1` [Example 72], for which the “Cell viability at time point in d-U937 cells, 4 h” value with d-U937 cells was “−ve (−ve and +ve indicate that the value is below and above respectively, the no significant effect threshold, defined as 30% inhibition at 1 μg/mL at the time point indicated)”. In addition, in the series with d-U937 cells, the “Cell viability at time point … 24 h” value was “−ve (−ve and +ve indicate that the value is below and above respectively, the no significant effect threshold, defined as 30% inhibition at 1 μg/mL at the time point indicated)”. Besides, the IC50 at GSK3α is above 13000 nM; in series [1], 2.1 nM; against cSrc, 4 nM; against Syk, 202 nM; in series [3] it was 2.6 nM. Moreover, the EC50 in series [2] came out at 1.2 nM.
Regarding `COc1ccc(-n2nc(C(C)C)cc2NC(=O)Nc2ccc(Oc3ccnc(Nc4cc(C)cc(C(=O)NCCN5CCOCC5)c4)n3)c3ccccc23)cc1` [Example 45, 3-((4-((4-(3-(3-isopropyl-1-(4-methoxyphenyl)-1H-pyrazol-5-yl)ureido)naphthalen-1-yl)oxy)pyrimidin-2-yl)amino)-5-methyl-N-(2-morpholinoethyl)benzamide], the “Cell viability at time point in d-U937 cells, 4 h” value in the series with d-U937 cells is “−ve (−ve and +ve indicate that the value is below and above respectively, the no significant effect threshold, defined as 30% inhibition at 1 μg/mL at the time point indicated)”. Besides, the “Cell viability at time point … 24 h” value in the series on d-U937 cells was “−ve (−ve and +ve indicate that the value is below and above respectively, the no significant effect threshold, defined as 30% inhibition at 1 μg/mL at the time point indicated)”. In addition, the IC50 against GSK3α was 1630 nM; in series [1], 0.7 nM; against Syk, above 1320 nM; in series [3], 135 nM. Also, the EC50 in series [2] is 1.6 nM.
